ChEMBL document CHEMBL1201862, “PubChem BioAssay data set” (2004)
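How tested: cells in 96-well plates exposed to compound for 48 hours at five concentrations. At the GI50, growth is halved.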 The source made the active and inactive calls. Rule as the data show it: active = GI50 up to about 1.1 µM and inactive = higher.

Legend:
Experiment in all cases: NCI anticancer screen, dose series, 48 h
SF-268 = tested on: SF-268
OVCAR-5 = tested on: OVCAR-5
DU-145 = tested on: DU-145
PC-3 = tested on: PC-3
A498 = tested on: A498
786-0 = tested on: 786-0
CCRF-CEM = tested on: CCRF-CEM
SK-OV-3 = tested on: SK-OV-3
HOP-92 = tested on: HOP-92
HCT-116 = tested on: HCT-116
HOP-62 = tested on: HOP-62
MDA-MB-435 = tested on: MDA-MB-435
SF-539 = tested on: SF-539
OVCAR-3 = tested on: OVCAR-3
A549 = tested on: A549
SK-MEL-5 = tested on: SK-MEL-5
NCI/ADR-RES = tested on: NCI/ADR-RES
SK-MEL-28 = tested on: SK-MEL-28
Malme-3M = tested on: Malme-3M
M14 = tested on: M14
HL-60 = tested on: HL-60
ACHN = tested on: ACHN
NCI-H23 = tested on: NCI-H23
KM12 = tested on: KM12
NCI-H226 = tested on: NCI-H226
UACC-257 = tested on: UACC-257
SN12C = tested on: SN12C
SK-MEL-2 = tested on: SK-MEL-2
UO-31 = tested on: UO-31
MDA-N = tested on: MDA-N
EKVX = tested on: EKVX
SW-620 = tested on: SW-620
SNB-19 = tested on: SNB-19
HT-29 = tested on: HT-29
SR = tested on: SR
HCT-15 = tested on: HCT-15
OVCAR-4 = tested on: OVCAR-4
CAKI-1 = tested on: CAKI-1
LOX IMVI = tested on: LOX IMVI
IGROV-1 = tested on: IGROV-1
Hs-578T = tested on: Hs-578T
HCC 2998 = tested on: HCC 2998
NCI-H522 = tested on: NCI-H522
MDA-MB-231 = tested on: MDA-MB-231
SNB-75 = tested on: SNB-75
MOLT-4 = tested on: MOLT-4
RXF 393 = tested on: RXF 393
T47D = tested on: T47D
UACC-62 = tested on: UACC-62
K562 = tested on: K562
SF-295 = tested on: SF-295
NCI-H460 = tested on: NCI-H460
U-251 = tested on: U-251
COLO 205 = tested on: COLO 205

CN(C)c1cccc2c(S(=O)(=O)NCCN)cccc12 [DANSYL ETHYLENEDIAMINE]
GI50 (SF-268): > 100 µM (inactive) | GI50 (OVCAR-5): > 100 µM (inactive) | GI50 (DU-145): > 100 µM (inactive) | GI50 (PC-3): > 100 µM (inactive) | GI50 (A498): 23 µM (inactive) | GI50 (786-0): > 100 µM (inactive) | GI50 (CCRF-CEM): > 100 µM (inactive) | GI50 (SK-OV-3): > 100 µM (inactive) | GI50 (HOP-92): > 100 µM (inactive) | GI50 (HCT-116): 35.2 µM (inactive) | GI50 (HOP-62): > 100 µM (inactive) | GI50 (MDA-MB-435): > 100 µM (inactive) | GI50 (SF-539): > 100 µM (inactive) | GI50 (OVCAR-3): > 100 µM (inactive) | GI50 (A549): > 100 µM (inactive) | GI50 (SK-MEL-5): 46.2 µM (inactive) | GI50 (NCI/ADR-RES): > 100 µM (inactive) | GI50 (SK-MEL-28): > 100 µM (inactive) | GI50 (Malme-3M): > 100 µM (inactive) | GI50 (M14): > 100 µM (inactive) | GI50 (HL-60): 9.91 µM (inactive) | GI50 (ACHN): > 100 µM (inactive) | GI50 (NCI-H23): > 100 µM (inactive) | GI50 (KM12): > 100 µM (inactive) | GI50 (NCI-H226): > 100 µM (inactive) | GI50 (UACC-257): > 100 µM (inactive) | GI50 (SN12C): > 100 µM (inactive) | GI50 (SK-MEL-2): > 100 µM (inactive) | GI50 (UO-31): 98.9 µM (inactive) | GI50 (MDA-N): > 100 µM (inactive) | GI50 (EKVX): > 100 µM (inactive) | GI50 (SW-620): > 100 µM (inactive) | GI50 (SNB-19): > 100 µM (inactive) | GI50 (HT-29): > 100 µM (inactive) | GI50 (SR): > 100 µM (inactive) | GI50 (HCT-15): > 100 µM | GI50 (OVCAR-4): > 100 µM (inactive) | GI50 (CAKI-1): > 100 µM (inactive) | GI50 (LOX IMVI): > 100 µM (inactive) | GI50 (IGROV-1): 33.7 µM (inactive) | GI50 (Hs-578T): > 100 µM (inactive) | GI50 (HCC 2998): 39.5 µM (inactive) | GI50 (NCI-H522): > 100 µM (inactive) | GI50 (MDA-MB-231): > 100 µM (inactive) | GI50 (SNB-75): 4.74 µM (inactive) | GI50 (MOLT-4): > 100 µM (inactive) | GI50 (RXF 393): 41.1 µM (inactive) | GI50 (T47D): > 100 µM (inactive) | GI50 (UACC-62): > 100 µM (inactive) | GI50 (K562): > 100 µM (inactive) | GI50 (SF-295): > 100 µM (inactive) | GI50 (NCI-H460): > 100 µM (inactive) | GI50 (U-251): > 100 µM (inactive) | GI50 (COLO 205): > 100 µM (inactive)
